Assay: Compound was tested for toxicity (lethal dose) in male white swiss mice
Type: organism-based
Conditions: mouse, in vivo
`CC(N)Cc1cc(O)c(O)cc1O` (racemic) gave an LD50 of 320 mg/kg. `C[C@](N)(Cc1ccc(O)c(O)c1)C(=O)O` [METHYLDOPA] gave an LD50 of 1890 mg/kg. Work on `CC(N)Cc1ccc(O)c(O)c1` (racemic) yielded an LD50 of 576 mg/kg. Work on `CC(N)(Cc1ccc(O)c(O)c1)C(=O)O` (racemic) [METHYLDOPA (RACEMIC)] yielded an LD50 of 1320 mg/kg. In the case of `CC(N)(Cc1cc(O)c(O)cc1O)C(=O)O` (racemic), the LD50 is reported as 289 mg/kg.

Source: ChEMBL document CHEMBL1121572, “Synthetic and preliminary hemodynamic and whole animal toxicity studies on (R,S)-, (R)-, and (S)-2-methyl-3-(2,4,5-trihydroxyphenyl)alanine” (J Med Chem, 1980)
